From PMC11995078, “Protocol for high-throughput screening of SIRT7 inhibitors using fluorescent peptide technology” (STAR Protocols, 2025)

Molecular target: T1, Sirtuin 7 (SIRT7) (Homo sapiens, UniProt Q9NRC8)
T1 construct: his-tagged full length SIRT7 (pET-28a, E. coli BL21(DE3))
T1 sequence (Q9NRC8 1-400): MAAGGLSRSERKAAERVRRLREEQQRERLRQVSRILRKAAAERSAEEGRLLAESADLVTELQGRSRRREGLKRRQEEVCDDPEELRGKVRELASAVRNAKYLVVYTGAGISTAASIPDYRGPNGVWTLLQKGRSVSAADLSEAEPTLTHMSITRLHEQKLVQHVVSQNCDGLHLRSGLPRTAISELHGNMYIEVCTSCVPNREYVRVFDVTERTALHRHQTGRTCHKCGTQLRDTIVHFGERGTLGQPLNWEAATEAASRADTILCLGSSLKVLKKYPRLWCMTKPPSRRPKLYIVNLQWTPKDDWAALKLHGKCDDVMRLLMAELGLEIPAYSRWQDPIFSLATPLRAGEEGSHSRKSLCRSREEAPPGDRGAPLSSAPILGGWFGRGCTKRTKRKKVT
Test: fluorescent MCA-peptide (H3K18) deacylation assay with purified SIRT7, dose-response
Format: biochemical

IC50: 12.7 µM
Compound: COC(=O)/C(=C\C(=O)c1ccc(O)c(O)c1)c1ccc(O)c(O)c1 [YZL-51N]
